Holding throughout (experiment): Enzyme activity test, mobility shift assay (Table 1)
Common to all, as to type: biochemical

Experiment [1] deals with CDK12 (aa686-1082)/Cyclin K (Homo sapiens (Human), UniProt Q9NYV4). As for the experimental part:
The compound powder was dissolved in 100% DMSO to prepare a 10 mM storage solution. The storage solution was further diluted to 0.5 mM as the initial concentration, and continuously diluted 3 times to obtain 10 compound solutions with different concentrations. The compound and enzyme were pre-incubated for 0 minutes and 60 minutes, respectively, using duplicate detection. Compound Staurosporine having a structural formula of
(§1) was used as a positive control, and Mobility shift assay method was used to detect CDK kinase (such as CDK7, CDK9, CDK12 and CDK2) activity of the compounds.

Another experiment concerns the target CDK2/Cyclin El (Homo sapiens (Human), UniProt P24941). The conditions noted are these: 2 mM ATP; read-out: CDK2 kinase IC50. Here is the method: (§2) The compound powder was dissolved in 100% DMSO to prepare a 10 mM storage solution. The storage solution was further diluted to 0.5 mM as the initial concentration, and continuously diluted 3 times to obtain 10 compound solutions with different concentrations. The compound and enzyme were pre-incubated for 0 minutes and 60 minutes, respectively, using duplicate detection.
as §1

The target in a further experiment is CDK9/Cyclin Tl (Homo sapiens (Human), UniProt P50750). The conditions noted are these: 2 mM ATP; read-out: CDK9 kinase IC50. As for the experimental part: as §2, §1
CDK9/Cyclin Tl, sequence (P50750 whole entry): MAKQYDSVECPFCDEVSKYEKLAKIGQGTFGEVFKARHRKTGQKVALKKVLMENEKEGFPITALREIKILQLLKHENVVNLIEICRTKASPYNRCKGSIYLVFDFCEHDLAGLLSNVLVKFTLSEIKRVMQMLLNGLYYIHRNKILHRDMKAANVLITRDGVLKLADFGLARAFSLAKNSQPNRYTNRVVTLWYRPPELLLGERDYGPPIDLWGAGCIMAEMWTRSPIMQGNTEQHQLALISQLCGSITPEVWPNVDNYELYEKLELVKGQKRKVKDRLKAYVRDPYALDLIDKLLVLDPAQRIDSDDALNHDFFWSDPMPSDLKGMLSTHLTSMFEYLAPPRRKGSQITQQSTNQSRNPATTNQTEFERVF
CDK9/Cyclin Tl, sequence (O60563 whole entry partner): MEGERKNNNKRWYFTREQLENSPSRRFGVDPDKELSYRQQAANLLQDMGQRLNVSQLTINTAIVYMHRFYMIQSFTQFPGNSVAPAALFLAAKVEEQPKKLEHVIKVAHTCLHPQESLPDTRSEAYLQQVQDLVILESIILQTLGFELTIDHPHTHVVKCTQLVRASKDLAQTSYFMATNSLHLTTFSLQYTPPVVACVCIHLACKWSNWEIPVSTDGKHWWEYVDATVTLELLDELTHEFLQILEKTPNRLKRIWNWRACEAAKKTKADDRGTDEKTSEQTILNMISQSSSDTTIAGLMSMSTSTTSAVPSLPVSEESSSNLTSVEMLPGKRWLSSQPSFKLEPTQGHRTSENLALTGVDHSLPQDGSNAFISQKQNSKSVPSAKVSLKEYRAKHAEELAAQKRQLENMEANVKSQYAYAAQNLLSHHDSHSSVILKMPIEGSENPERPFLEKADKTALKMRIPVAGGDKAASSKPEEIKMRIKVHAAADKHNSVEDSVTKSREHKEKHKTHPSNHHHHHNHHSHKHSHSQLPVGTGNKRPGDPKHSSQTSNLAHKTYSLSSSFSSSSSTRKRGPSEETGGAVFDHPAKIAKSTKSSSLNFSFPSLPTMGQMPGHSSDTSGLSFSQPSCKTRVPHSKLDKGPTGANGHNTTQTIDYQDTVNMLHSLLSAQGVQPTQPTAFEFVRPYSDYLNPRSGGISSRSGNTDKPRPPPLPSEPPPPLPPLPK
For experiment [2], the target named is CDK7/Cyclin H/MAT1 kinase (Homo sapiens (Human), UniProt P50613). The conditions noted are these: 2 mM ATP; pre-incubated 0 and 60 minutes. Here is the method:
IC50 values of the compounds for CDK7 kinase were detected in Wuxi Biortus Biosciences Co. Ltd.
as §2, §1

Setting [3] is: 2 mM ATP, read-out: CDK12 kinase IC50.

pIC50: −log10 of the molar value. Read-outs that look alike come from different tables or passages of the source.

CDK7/Cyclin H/MAT1 kinase, sequence (P50613 whole entry): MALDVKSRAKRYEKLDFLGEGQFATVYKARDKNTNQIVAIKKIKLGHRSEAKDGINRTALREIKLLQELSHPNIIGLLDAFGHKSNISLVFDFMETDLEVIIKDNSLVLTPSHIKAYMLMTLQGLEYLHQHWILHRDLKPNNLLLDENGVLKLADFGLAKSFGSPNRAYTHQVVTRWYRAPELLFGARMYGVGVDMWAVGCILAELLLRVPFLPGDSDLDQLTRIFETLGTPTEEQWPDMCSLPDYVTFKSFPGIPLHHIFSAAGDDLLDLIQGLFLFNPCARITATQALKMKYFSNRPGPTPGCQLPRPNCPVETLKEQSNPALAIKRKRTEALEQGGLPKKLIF
CDK7/Cyclin H/MAT1 kinase, sequence (P51946 whole entry partner): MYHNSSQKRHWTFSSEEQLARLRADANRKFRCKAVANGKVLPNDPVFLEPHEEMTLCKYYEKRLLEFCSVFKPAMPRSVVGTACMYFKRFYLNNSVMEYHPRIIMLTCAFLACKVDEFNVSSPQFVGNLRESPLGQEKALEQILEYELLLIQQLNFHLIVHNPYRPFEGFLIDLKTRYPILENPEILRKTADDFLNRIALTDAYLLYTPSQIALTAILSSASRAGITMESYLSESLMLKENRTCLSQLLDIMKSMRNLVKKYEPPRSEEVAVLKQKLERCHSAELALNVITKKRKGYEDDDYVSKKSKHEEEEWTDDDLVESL
CDK7/Cyclin H/MAT1 kinase, sequence (P51948 whole entry partner): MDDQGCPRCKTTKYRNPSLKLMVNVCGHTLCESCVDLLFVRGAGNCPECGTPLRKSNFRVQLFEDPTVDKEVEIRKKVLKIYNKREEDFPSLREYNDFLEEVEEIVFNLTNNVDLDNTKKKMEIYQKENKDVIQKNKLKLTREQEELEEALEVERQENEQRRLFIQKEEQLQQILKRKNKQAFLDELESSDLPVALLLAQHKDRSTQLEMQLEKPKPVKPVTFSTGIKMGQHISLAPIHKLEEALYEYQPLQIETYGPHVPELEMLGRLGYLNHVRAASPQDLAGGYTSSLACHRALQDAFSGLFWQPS
CDK12 (aa686-1082)/Cyclin K, sequence (Q9NYV4 686-1082): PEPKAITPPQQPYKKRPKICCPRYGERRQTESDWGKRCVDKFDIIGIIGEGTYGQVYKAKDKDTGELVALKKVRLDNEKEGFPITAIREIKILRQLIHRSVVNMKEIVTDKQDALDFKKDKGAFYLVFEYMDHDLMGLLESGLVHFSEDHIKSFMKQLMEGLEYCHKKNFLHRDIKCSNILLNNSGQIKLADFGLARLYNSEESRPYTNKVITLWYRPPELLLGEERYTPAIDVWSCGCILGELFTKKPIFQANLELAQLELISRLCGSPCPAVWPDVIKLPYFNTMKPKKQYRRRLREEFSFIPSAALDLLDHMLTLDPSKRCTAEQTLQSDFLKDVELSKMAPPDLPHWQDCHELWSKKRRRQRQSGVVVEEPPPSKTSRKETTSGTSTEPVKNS
CDK12 (aa686-1082)/Cyclin K, sequence (O75909 whole entry partner, the tested form may be a part): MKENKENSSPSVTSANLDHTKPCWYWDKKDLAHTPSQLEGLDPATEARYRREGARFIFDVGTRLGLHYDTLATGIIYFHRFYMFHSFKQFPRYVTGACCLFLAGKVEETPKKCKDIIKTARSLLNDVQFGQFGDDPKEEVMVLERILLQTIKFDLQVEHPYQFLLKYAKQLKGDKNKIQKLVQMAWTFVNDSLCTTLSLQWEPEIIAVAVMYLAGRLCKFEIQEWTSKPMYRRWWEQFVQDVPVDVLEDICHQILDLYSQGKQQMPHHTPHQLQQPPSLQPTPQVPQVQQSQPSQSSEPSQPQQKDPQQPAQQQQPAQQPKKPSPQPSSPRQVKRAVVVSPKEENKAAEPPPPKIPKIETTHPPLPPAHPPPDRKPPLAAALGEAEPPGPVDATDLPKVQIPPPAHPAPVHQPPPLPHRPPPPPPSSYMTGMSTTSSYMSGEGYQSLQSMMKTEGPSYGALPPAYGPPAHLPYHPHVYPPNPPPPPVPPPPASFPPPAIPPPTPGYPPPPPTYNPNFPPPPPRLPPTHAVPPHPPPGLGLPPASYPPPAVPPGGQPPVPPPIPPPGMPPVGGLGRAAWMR

Take `COC(=O)Nc1ccc2c(-c3nc(O[C@H]4CCCNC4)ncc3C(F)(F)F)c[nH]c2c1Br` [Example T-02]: the pIC50 in experiment [1] (setting [3]) is under 6.30; at CDK2/Cyclin El it was under 6.30; at CDK9/Cyclin Tl, under 6.30; in experiment [2] it was 6.30 to 7.30.

Turning to `O=C1CCCCN1c1ccc2c(-c3nc(N[C@H]4CCCNC4)ncc3C(F)(F)F)c[nH]c2c1Br` [Example T-03], the pIC50 is under 6.30 in experiment [1] (setting [3]), under 6.30 at CDK2/Cyclin El, under 6.30 on CDK9/Cyclin Tl and over 7.30 in experiment [2].

As for `O=C1CCCN1c1ccc2c(-c3nc(N[C@H]4CCCNC4)ncc3C(F)(F)F)c[nH]c2c1Br` [Example T-04], the pIC50 in experiment [1] (setting [3]) is under 6.30; on CDK2/Cyclin El, under 6.30; on CDK9/Cyclin Tl it was under 6.30; in experiment [2], over 7.30.

Consider `CN1CCC[C@H](Nc2ncc(C(F)(F)F)c(-c3c[nH]c4cc(N5CCCC5=O)ccc34)n2)C1` [Example T-05], for which the pIC50 in experiment [1] (setting [3]) is under 6.30; on CDK2/Cyclin El, under 6.30; at CDK9/Cyclin Tl it was under 6.30; in experiment [2], over 7.30.

For `O=C1OCCCN1c1ccc2c(-c3nc(N[C@H]4CCCNC4)ncc3C(F)(F)F)c[nH]c2c1Br` [Example T-06], the pIC50 was under 6.30 in experiment [1] (setting [3]), under 6.30 at CDK2/Cyclin El, under 6.30 at CDK9/Cyclin Tl and over 7.30 in experiment [2].

For `CC1(C)COC(Nc2ccc3c(-c4nc(N[C@H]5CCCNC5)ncc4C(F)(F)F)c[nH]c3c2Br)=N1` [Example T-07], the pIC50 in experiment [1] (setting [3]) was under 6.30; on CDK2/Cyclin El, under 6.30; at CDK9/Cyclin Tl, under 6.30; in experiment [2], over 7.30.

With `O=C(Nc1ccc2c(-c3nc(N[C@H]4CCCNC4)ncc3C(F)(F)F)c[nH]c2c1Br)C1CC1` [Example T-08], the pIC50 in experiment [1] (setting [3]) was under 6.30; on CDK2/Cyclin El, under 6.30; on CDK9/Cyclin Tl it was under 6.30; in experiment [2] it was over 7.30.

In the case of `CC(=O)Nc1ccc2c(-c3nc(N[C@H]4CCCNC4)ncc3C(F)(F)F)c[nH]c2c1Br` [Example T-09], the pIC50 in experiment [1] (setting [3]) is under 6.30; at CDK2/Cyclin El, under 6.30; at CDK9/Cyclin Tl, under 6.30; in experiment [2] it was over 7.30.

On to `CC(=O)Nc1ccc2c(-c3nc(N[C@H]4CCCNC4)ncc3C(F)(F)F)c[nH]c2c1` [Example T-10], for which the pIC50 is under 6.30 in experiment [1] (setting [3]), under 6.30 at CDK2/Cyclin El, under 6.30 on CDK9/Cyclin Tl and over 7.30 in experiment [2].

`O=C(Nc1ccc2c(-c3nc(N[C@H]4CCCNC4)ncc3C(F)(F)F)c[nH]c2c1)C1CC1` [Example T-11]: the pIC50 was under 6.30 in experiment [1] (setting [3]), under 6.30 on CDK2/Cyclin El, under 6.30 at CDK9/Cyclin Tl and over 7.30 in experiment [2].

For the molecule `O=C1OCCN1c1ccc2c(-c3nc(N[C@H]4CCCNC4)ncc3C(F)(F)F)c[nH]c2c1Br` [Example T-12], the negative logarithm of the IC50 (pIC50) is under 6.30 in experiment [1] (setting [3]), under 6.30 on CDK2/Cyclin El, under 6.30 at CDK9/Cyclin Tl and over 7.30 in experiment [2].

Turning to `O=C1CCCN1c1ccc2c(-c3nc(N[C@H]4CCCNC4)ncc3C(F)(F)F)c[nH]c2c1` [Example T-13], the pIC50 in experiment [1] (setting [3]) was under 6.30; at CDK2/Cyclin El, under 6.30; at CDK9/Cyclin Tl it was under 6.30; in experiment [2] it was over 7.30.

In the case of `COC(=O)Nc1ccc2c(-c3nc(N[C@H]4CCCNC4)ncc3C(F)(F)F)c[nH]c2c1P(C)(C)=O` [Example T-14], the negative-log IC50 (pIC50) is under 6.30 in experiment [1] (setting [3]), under 6.30 on CDK2/Cyclin El, under 6.30 at CDK9/Cyclin Tl and over 7.30 in experiment [2].

Consider `CC(=O)Nc1ccc2c(-c3nc(N[C@H]4CCCNC4)ncc3C(F)(F)F)c[nH]c2c1P(C)(C)=O` [Example T-15], for which the pIC50 was under 6.30 in experiment [1] (setting [3]), under 6.30 on CDK2/Cyclin El, under 6.30 at CDK9/Cyclin Tl and over 7.30 in experiment [2].

`COC(=O)Nc1ccc2c(-c3nc(N[C@H]4CCCNC4)ncc3C(F)(F)F)c[nH]c2c1` [Example T-16]: the pIC50 in experiment [1] (setting [3]) was under 6.30; at CDK2/Cyclin El it was under 6.30; at CDK9/Cyclin Tl it was under 6.30; in experiment [2] it was over 7.30.

Take `O=C1CCN1c1ccc2c(-c3nc(N[C@H]4CCCNC4)ncc3C(F)(F)F)c[nH]c2c1Br` [Example T-18]: the pIC50 in experiment [1] (setting [3]) was under 6.30; on CDK2/Cyclin El, under 6.30; on CDK9/Cyclin Tl, under 6.30; in experiment [2] it was over 7.30.

Consider `COC(=O)Nc1ccc2c(-c3nc(NC4CC5(CNC5)C4)ncc3C(F)(F)F)c[nH]c2c1Br` [Example T-19], for which the negative logarithm of the IC50 (pIC50) is under 6.30 in experiment [1] (setting [3]), under 6.30 on CDK2/Cyclin El, under 6.30 on CDK9/Cyclin Tl and over 7.30 in experiment [2].

For `COC(=O)Nc1ccc2c(-c3nc(N[C@H]4CCC[C@H](N)C4)ncc3C(F)(F)F)c[nH]c2c1Br` [Example T-20], the pIC50 was under 6.30 in experiment [1] (setting [3]), under 6.30 on CDK2/Cyclin El, under 6.30 at CDK9/Cyclin Tl and 6.30 to 7.30 in experiment [2].

Take `COC(=O)Nc1ccc2c(-c3nc(N[C@H]4CCC[C@@H](N)C4)ncc3C(F)(F)F)c[nH]c2c1Br` [Example T-21]: the pIC50 is under 6.30 in experiment [1] (setting [3]), under 6.30 on CDK2/Cyclin El, under 6.30 on CDK9/Cyclin Tl and 6.30 to 7.30 in experiment [2].

Take `COC(=O)Nc1ccc2c(-c3nc(N[C@@H]4CCC[C@H](N)C4)ncc3C(F)(F)F)c[nH]c2c1Br` [Example T-22]: the pIC50 in experiment [1] (setting [3]) is under 6.30; on CDK2/Cyclin El, under 6.30; on CDK9/Cyclin Tl, under 6.30; in experiment [2] it was 6.30 to 7.30.

For `COC(=O)Nc1ccc2c(-c3nc(N[C@@H]4CCC[C@@H](N)C4)ncc3C(F)(F)F)c[nH]c2c1Br` [Example T-23], the pIC50 is under 6.30 in experiment [1] (setting [3]), under 6.30 on CDK2/Cyclin El, under 6.30 at CDK9/Cyclin Tl and 6.30 to 7.30 in experiment [2].

As for `COC(=O)Nc1ccc2c(-c3nc(N[C@H]4[C@@H]5CNC[C@@H]54)ncc3C(F)(F)F)c[nH]c2c1Br` [Example T-24], the pIC50 in experiment [1] (setting [3]) was under 6.30; on CDK2/Cyclin El, under 6.30; at CDK9/Cyclin Tl it was under 6.30; in experiment [2], over 7.30.

For `COC(=O)Nc1ccc2c(-c3nc(N[C@@H]4[C@@H]5CNC[C@@H]54)ncc3C(F)(F)F)c[nH]c2c1Br` [Example T-25], the pIC50 is under 6.30 in experiment [1] (setting [3]), under 6.30 at CDK2/Cyclin El, under 6.30 on CDK9/Cyclin Tl and 6.30 to 7.30 in experiment [2].

As for `COC(=O)Nc1ccc2c(-c3nc(NC4C5CCNC54)ncc3C(F)(F)F)c[nH]c2c1Br` (stereo not shown) [Example T-26], the pIC50 in experiment [1] (setting [3]) was under 6.30; at CDK2/Cyclin El, under 6.30; on CDK9/Cyclin Tl it was under 6.30; in experiment [2], 6.30 to 7.30.

In the case of `COC(=O)Nc1ccc2c(-c3nc(N[C@H]4CCCNC4)ncc3C(F)(F)F)c[nH]c2c1C#N` [Example T-27], the pIC50 in experiment [1] (setting [3]) is under 6.30; at CDK2/Cyclin El, under 6.30; on CDK9/Cyclin Tl it was under 6.30; in experiment [2], over 7.30.

Consider `COC(=O)Nc1ccc2c(-c3nc(NC4CC5CNCC5C4)ncc3C(F)(F)F)c[nH]c2c1Br` (stereo not shown) [Example T-28], for which the pIC50 was under 6.30 in experiment [1] (setting [3]), under 6.30 at CDK2/Cyclin El, under 6.30 on CDK9/Cyclin Tl and 6.30 to 7.30 in experiment [2].

Take `COC(=O)Nc1ccc2c(-c3nc(N[C@H]4CCC[C@@H](O)C4)ncc3C(F)(F)F)c[nH]c2c1Br` [Example T-29]: the pIC50 (in experiment [1] (setting [3]); on CDK2/Cyclin El; at CDK9/Cyclin Tl; in experiment [2]) was under 6.30 throughout.

In the case of `COC(=O)Nc1ccc2c(-c3nc(NC4CC5(CC(N)C5)C4)ncc3C(F)(F)F)c[nH]c2c1Br` (stereo not shown) [Example T-31], the pIC50 is under 6.30 in experiment [1] (setting [3]), under 6.30 on CDK2/Cyclin El, under 6.30 on CDK9/Cyclin Tl and over 7.30 in experiment [2].

Take `COC(=O)Nc1ccc2c(-c3nc(N[C@H]4CCC(C)(C)NC4)ncc3C(F)(F)F)c[nH]c2c1C(F)(F)F` [Example T-35]: the negative logarithm of the IC50 (pIC50) in experiment [1] (setting [3]) is under 6.30; on CDK2/Cyclin El it was under 6.30; at CDK9/Cyclin Tl it was under 6.30; in experiment [2] it was over 7.30.

With `CCOC(=O)Nc1ccc2c(-c3nc(N[C@@H]4CNCC(C)(C)C4)ncc3C(F)(F)F)c[nH]c2c1Br` [Example T-43], the negative-log IC50 (pIC50) in experiment [1] (setting [3]) is under 6.30; at CDK2/Cyclin El, under 6.30; on CDK9/Cyclin Tl, under 6.30; in experiment [2], over 7.30.

For `CC(C)OC(=O)Nc1ccc2c(-c3nc(N[C@H]4CCCNC4)ncc3C(F)(F)F)c[nH]c2c1Br` [Example T-44], the pIC50 in experiment [1] (setting [3]) was under 6.30; at CDK2/Cyclin El it was under 6.30; on CDK9/Cyclin Tl, under 6.30; in experiment [2], over 7.30.

For `COC(=O)Nc1ccc2c(-c3nc(N[C@H]4CCCNC4)ncc3C(F)(F)F)c[nH]c2c1-c1ccccc1` [Example T-60], the pIC50 in experiment [1] (setting [3]) was under 6.30; at CDK2/Cyclin El, under 6.30; at CDK9/Cyclin Tl, under 6.30; in experiment [2], over 7.30.

On to `COC(=O)Nc1ccc2c(-c3nc(N[C@H]4CCCNC4)ncc3C(F)(F)F)c[nH]c2c1S(=O)(=O)C(C)C` [Example T-63], for which the negative logarithm of the IC50 (pIC50) in experiment [1] (setting [3]) is under 6.30; on CDK2/Cyclin El, under 6.30; at CDK9/Cyclin Tl, under 6.30; in experiment [2] it was over 7.30.

As to `CN[C@@H]1C[C@H]2O[C@@](C)([C@@H]1OC)n1c3ccccc3c3c4c(c5c6ccccc6n2c5c31)C(=O)NC4` [Staurosporine, reference compound], the pIC50 in experiment [1] was under 6.30.

Values taken from US20230295130A1, “COMPOUND USEFUL AS CDK7 KINASE INHIBITOR AND USE THEREOF” (TYK MEDICINES, INC., priority 2020, published 2023).
